Data: ChEMBL document CHEMBL2203230, “Compounds from the heartwood of Caesalpinia sappan and their anti-inflammatory activity” (Bioorg Med Chem Lett, 2012)

Each molecule was assayed on RAW264.7 (assay: Antiinflammatory activity in mouse RAW264.7 cells assessed as reduction in LPS-induced iNOS expression incubated for 30 mins prior to LPS-challenge measured after 18 hrs). Conditions: not given.
Format: functional, cell-based

Row | Compound | Activity
1 | COc1cc(O)ccc1C(=O)/C=C/c1ccc(O)cc1 | Dose-dependent effect

These molecules were tested on RAW264.7 (assay: Antiinflammatory activity in mouse RAW264.7 cells assessed as inhibition of LPS-induced NO production after 24 hrs by Griess method). Conditions: RAW264.7, 24 h.
Format: functional, cell-based

Row | IC50 | Compound
2 | 8.1 µM | COc1cc(O)ccc1C(=O)/C=C/c1ccc(O)cc1
3 | > 50 µM | CC1(C)O[C@H]2c3ccc(O)cc3OC[C@@]2(Cc2ccc(O)cc2)O1
4 | 43.5 µM | Oc1ccc2c(c1)OC[C@]1(O)Cc3cc(O)c(O)cc3[C@H]21 [BRAZILIN]
5 | > 50 µM | CO[C@H]1[C@]2(O)COC3=CC(=O)C=C[C@@]31c1cc(O)c(O)cc1C2 [CAESALPINJ]
6 | > 50 µM | COc1cc(C[C@@]2(O)COc3cc(O)ccc3[C@@H]2OC)ccc1O [CAESALPINIAPHENOL F]
7 | > 50 µM | Oc1ccc2c(c1)OC[C@]1(O)Cc3c(ccc(O)c3O)[C@H]21 [CAESALPINIAPHENOL E]
8 | 36.7 µM | Oc1ccc2c(c1)OC[C@@H]1Cc3cc(O)c(O)cc3[C@H]21 [BRAZILANE]
9 | > 50 µM | COc1cc2c(cc1O)C[C@@]1(O)COc3cc(O)ccc3[C@@H]21
10 | > 50 µM | O=C(c1ccc(O)cc1O)[C@@H](O)Cc1ccc(O)cc1
11 | > 50 µM | COC1(OC)COc2cc(O)ccc2-c2cc(O)c(O)cc2C1 [PROTOSAPPANINADIMETHYLACETAL]
12 | > 50 µM | COc1cc(C[C@@]23COc4cc(O)ccc4[C@@H]2OC(C)(C)O3)ccc1O
13 | > 50 µM | COc1cc2c(cc1O)[C@@H]1c3ccc(O)cc3OC[C@]1(O)C2
